Reference: paper PMC9549968 (The Journal of investigative dermatology, 2021)
Positions of bridges follow the written chain, without caps; N, C: chain ends. No end group written: not given here.

What was measured:
Mrgpra3-Cre-GFP neurons = assay: Whole-cell patch-clamp recording of Mrgpra3-Cre-GFP neurons; format: cell-based, mouse; conditions: n=8/8
mice = assay: Itch behavior: scratching bouts after intradermal injection; format: in vivo, mouse; conditions: for itch-responses (scratching bouts): mice, intradermal injection 1mM, 10μL, versus saline, n=8-12
Mrgprb2 = biological target: T1, Mrgprb2 (Mus musculus, UniProt Q3KNA1); assay: FLIPR calcium imaging, HEK293 expressing Mrgprb2; format: cell-based
T1 sequence (Q3KNA1 1-338): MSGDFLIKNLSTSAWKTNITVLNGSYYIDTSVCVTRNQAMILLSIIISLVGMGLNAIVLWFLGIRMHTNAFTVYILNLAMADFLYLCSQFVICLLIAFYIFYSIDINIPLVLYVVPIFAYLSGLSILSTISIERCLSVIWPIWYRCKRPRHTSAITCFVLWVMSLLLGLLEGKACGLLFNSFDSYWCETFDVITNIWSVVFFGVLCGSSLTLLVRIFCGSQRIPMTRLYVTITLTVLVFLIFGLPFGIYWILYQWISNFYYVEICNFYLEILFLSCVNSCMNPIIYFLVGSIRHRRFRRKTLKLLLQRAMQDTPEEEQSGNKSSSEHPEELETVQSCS

Mrgpra3 = biological target: T2, Mrgpra3 (Mus musculus, UniProt Q91WW3); assay: FLIPR calcium imaging, HEK293 expressing Mrgpra3; format: cell-based
T2 sequence (Q91WW3 1-302): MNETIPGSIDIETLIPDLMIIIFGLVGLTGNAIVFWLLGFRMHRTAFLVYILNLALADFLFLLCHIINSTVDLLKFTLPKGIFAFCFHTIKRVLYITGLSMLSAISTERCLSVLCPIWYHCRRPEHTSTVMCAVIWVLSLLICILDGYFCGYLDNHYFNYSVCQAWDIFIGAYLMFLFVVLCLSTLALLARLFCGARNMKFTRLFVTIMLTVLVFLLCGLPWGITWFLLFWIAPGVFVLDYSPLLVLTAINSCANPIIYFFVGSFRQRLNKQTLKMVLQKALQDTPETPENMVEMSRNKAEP

MRGPRX1 = MRGPRX1 (Homo sapiens, UniProt Q96LB2); assay: FLIPR calcium imaging, HEK293 expressing MRGPRX1; format: cell-based; conditions: SEM
Sequence of MRGPRX1 (Q96LB2 whole entry): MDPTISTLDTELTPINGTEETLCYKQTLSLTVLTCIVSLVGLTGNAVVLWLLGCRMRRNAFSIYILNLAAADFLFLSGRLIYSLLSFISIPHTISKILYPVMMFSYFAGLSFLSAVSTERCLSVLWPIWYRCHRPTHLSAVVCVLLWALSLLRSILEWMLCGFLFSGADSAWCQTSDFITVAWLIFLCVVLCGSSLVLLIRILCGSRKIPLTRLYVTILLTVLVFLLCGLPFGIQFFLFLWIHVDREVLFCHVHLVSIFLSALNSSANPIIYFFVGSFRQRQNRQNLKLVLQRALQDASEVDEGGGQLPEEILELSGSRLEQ

Mrgprc11 = biological target: T3, Mrgprc11 (Mus musculus, UniProt Q8CIP3); assay: FLIPR calcium imaging, HEK293 expressing Mrgprc11; format: cell-based
T3 sequence (Q8CIP3 1-322): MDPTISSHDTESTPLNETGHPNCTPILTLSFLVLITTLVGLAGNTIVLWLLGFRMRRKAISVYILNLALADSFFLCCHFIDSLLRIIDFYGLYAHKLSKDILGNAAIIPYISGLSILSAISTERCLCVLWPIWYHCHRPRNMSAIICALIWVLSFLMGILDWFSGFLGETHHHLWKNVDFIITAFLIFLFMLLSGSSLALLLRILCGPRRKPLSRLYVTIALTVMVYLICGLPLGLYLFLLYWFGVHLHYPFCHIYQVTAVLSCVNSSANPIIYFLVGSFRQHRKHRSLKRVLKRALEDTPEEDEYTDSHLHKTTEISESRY

DRG neurons = assay: Calcium imaging of cultured DRG neurons; format: cell-based, mouse; conditions: 352 neurons imaged
Mrgpra1 = biological target: T4, Mrgpra1 (Mus musculus, UniProt Q91WW5); assay: FLIPR calcium imaging, HEK293 expressing Mrgpra1; format: cell-based; conditions: SEM
T4 sequence (Q91WW5 1-304): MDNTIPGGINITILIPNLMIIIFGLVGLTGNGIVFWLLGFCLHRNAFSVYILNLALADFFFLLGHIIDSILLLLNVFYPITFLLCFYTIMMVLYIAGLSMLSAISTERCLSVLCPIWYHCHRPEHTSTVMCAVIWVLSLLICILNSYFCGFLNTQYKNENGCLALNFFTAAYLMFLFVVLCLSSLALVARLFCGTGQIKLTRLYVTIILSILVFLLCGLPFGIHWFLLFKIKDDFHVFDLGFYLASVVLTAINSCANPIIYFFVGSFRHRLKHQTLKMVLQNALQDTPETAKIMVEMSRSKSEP

Mrgpra2b = biological target: T5, Mrgpra2b (Mus musculus, UniProt Q91WW4); assay: FLIPR calcium imaging, HEK293 expressing Mrgpra2b; format: cell-based
T5 sequence (Q91WW4 1-305): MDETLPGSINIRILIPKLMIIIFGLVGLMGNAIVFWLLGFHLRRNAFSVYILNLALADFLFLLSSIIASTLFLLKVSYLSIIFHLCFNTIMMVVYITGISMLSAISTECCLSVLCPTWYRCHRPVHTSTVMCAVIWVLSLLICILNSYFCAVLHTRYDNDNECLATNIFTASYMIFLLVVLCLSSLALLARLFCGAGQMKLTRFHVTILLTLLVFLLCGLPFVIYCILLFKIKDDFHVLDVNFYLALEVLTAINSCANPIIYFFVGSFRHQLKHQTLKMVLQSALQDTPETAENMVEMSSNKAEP

MRGPRX2 = biological target: T6, MRGPRX2 (Homo sapiens, UniProt Q96LB1); assay: FLIPR calcium imaging, HEK293 expressing MRGPRX2; format: cell-based; conditions: SEM
T6 sequence (Q96LB1 1-330): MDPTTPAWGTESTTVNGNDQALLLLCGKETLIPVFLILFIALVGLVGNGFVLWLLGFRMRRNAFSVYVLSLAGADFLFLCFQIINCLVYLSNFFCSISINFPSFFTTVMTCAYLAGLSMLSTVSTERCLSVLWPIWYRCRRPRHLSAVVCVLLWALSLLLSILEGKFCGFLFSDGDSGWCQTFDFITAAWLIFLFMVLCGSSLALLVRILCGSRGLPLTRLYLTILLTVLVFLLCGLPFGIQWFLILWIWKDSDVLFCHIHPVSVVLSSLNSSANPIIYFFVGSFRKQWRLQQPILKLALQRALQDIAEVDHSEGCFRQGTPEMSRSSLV

MRGPRX3 = MRGPRX3 (Homo sapiens, UniProt Q96LB0); assay: FLIPR calcium imaging, HEK293 expressing MRGPRX3; format: cell-based
Sequence of MRGPRX3 (Q96LB0 whole entry): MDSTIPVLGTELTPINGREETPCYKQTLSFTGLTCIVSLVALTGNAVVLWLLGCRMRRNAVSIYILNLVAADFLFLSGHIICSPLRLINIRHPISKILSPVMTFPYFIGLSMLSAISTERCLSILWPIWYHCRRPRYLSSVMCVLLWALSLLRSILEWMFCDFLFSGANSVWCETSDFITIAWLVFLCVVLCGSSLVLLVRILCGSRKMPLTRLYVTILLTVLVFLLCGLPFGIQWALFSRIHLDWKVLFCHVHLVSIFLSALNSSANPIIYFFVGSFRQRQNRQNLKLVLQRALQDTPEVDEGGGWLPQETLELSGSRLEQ

Molecule	itch-responses (scratching bouts) (mice)	EC50 (Mrgprb2) [nM]	EC50 (MRGPRX1) [nM]	EC50 (Mrgpra1) [nM]	EC50 (MRGPRX2) [nM]	further results
CCN(CC)CCCC(C)Nc1ccnc2cc(Cl)ccc12 (stereo not drawn) [CQ, chloroquine, reference compound]						action potential discharges in Mrgpra3-Cre-GFP neurons (Mrgpra3-Cre-GFP neurons; 100μM): evoked action potential discharges
Defb1: recombinant mouse β-defensin, constitutively highly expressed in skin (DQYKCLQHGGFCLRSSCPSNTKLQGTCKPDKPNCCKS; ends and bridges not checked; cysteine pairing not given here; UniProt P56386 33-69, looked up)	not significantly different from saline injection					
FLPKTLRKFFCRIRGGRCAVLNCLGKEEQIGRCSNSGRKCCRKKK (disulfide 11-40, 18-33, 23-41) [Defb14]	evoked the most intense itch phenotype	1700 ± 450	610 ± 170	620 ± 160		EC50 (Mrgpra3): 1000 ± 180 nM; EC50 (Mrgprc11): 21600 ± 11700 nM; Defb14-responsive neurons that responded to CQ (DRG neurons; cultured mouse DRG neurons, AAV9-GCaMP6f): 46/55; calcium response of DRG neurons (DRG neurons; dissociated mouse DRG neurons expressing GCaMP6f): induced calcium increases in DRG neurons; Defb14 induced scratching in mast-cell deficient mice (mice; Mcpt5-Cre::Rosa-stop-DTA mice versus wild-type controls, 1mM, p=0.87): did not attenuate; scratching responses in mice with ablated Mrgpra3-neurons (mice; Mrgpra3-Cre::Rosa-stop-DTA mice (n=14) versus controls (n=12), 1mM, p=0.007): significantly attenuated; action potential discharges in Mrgpra3-Cre-GFP neurons (Mrgpra3-Cre-GFP neurons; 1μM): evoked action potential discharges; EC50 (Mrgpra2b): 19400 ± 8600 nM
GIGDPVTCLKSGAICHPVFCPRRYKQIGTCGLPGTKCCKKP (disulfide 8-37, 15-30, 20-38) [DEFB4]			58300 ± 18000		17500 ± 3800	
GIINTLQKYYCRVRGGRCAVLSCLPKEEQIGKCSTRGRKCCRRKK (disulfide 11-40, 18-33, 23-41) [DEFB103]			280 ± 50		420 ± 110	EC50 (MRGPRX3): 7400 ± 1900 nM; activation of LAD2 cells, calcium imaging (LAD2 cells; peptide 1μM, compared with DEFB4): activated more LAD2 cells and evoked stronger calcium influx than the DEFB4; potency of DEFB103 relative to DEFB4 in LAD2 cells (LAD2 cells; ratio of EC50s, LAD2 calcium imaging): about 10 fold
KKINNPVSCLRKGGRCWNRCIGNTRQIGSCGVPFLKCCKRK (disulfide 9-37, 16-30, 20-38) [Defb3]	evoked a strong itch phenotype	11500 ± 3500		2700 ± 600		
